Drawing on BindingDB's records for doi:10.1021/jm7011613 (Abbott Laboratories, 2008), this text covers EC50 for 23 compounds.

Cannabinoid receptor 2, sequence (P34972 whole entry): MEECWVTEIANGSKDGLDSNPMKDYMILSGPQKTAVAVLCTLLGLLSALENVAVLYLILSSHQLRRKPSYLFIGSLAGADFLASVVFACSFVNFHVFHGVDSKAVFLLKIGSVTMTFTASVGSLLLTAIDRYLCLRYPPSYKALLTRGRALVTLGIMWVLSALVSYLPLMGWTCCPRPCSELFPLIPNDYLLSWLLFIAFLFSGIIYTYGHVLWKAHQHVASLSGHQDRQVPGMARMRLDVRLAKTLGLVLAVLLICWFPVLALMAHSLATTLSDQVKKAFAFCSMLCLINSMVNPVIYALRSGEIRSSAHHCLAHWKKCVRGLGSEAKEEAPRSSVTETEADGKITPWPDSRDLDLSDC

The test addresses Cannabinoid receptor 2 (Homo sapiens, UniProt P34972). The experiment in a line: Radioligand Binding Assay. As for the experimental part:
IC50 values for test compounds were determined from nonlinear regression analysis of data collected from ligand binding experiments. The inhibition constant (Ki) was calculated from IC50 value by the Cheng and Prusoff equation.
By EC50 is commonly meant the concentration that produces a half-maximal response. Lower therefore signals higher potency in that assay. Regarding `COc1cccc2c1c(C(=O)C1C(C)(C)C1(C)C)cn2CC1CCOCC1` [4-methoxy-1-(oxan-4-ylmethyl)-3-[(2,2,3,3-tetramethylcyclopropyl)carbonyl]-1H-indole], a half-maximal effect (EC50) was put at 91 nM.

In turn, `CC1(C)C(C(=O)c2cn(CC3CCOCC3)c3ccc(N)cc23)C1(C)C` [1-(oxan-4-ylmethyl)-3-[(2,2,3,3-tetramethylcyclopropyl)carbonyl]-1H-indol-5-amine] gave a 50% effective concentration (EC50) of 15.5 nM.

On to `CC1(C)C(C(=O)c2cn(CCN3CCOCC3)c3ccccc23)C1(C)C` [4-(2-{3-[(2,2,3,3-tetramethylcyclopropyl)carbonyl]-1H-indol-1-yl}ethyl)morpholine], for which the 50% effective concentration (EC50) amounted to 17.5 nM.

As to `CC1(C)C(C(=O)c2cn(CC3CCOCC3)c3ccc(CO)cc23)C1(C)C` [[1-(oxan-4-ylmethyl)-3-[(2,2,3,3-tetramethylcyclopropyl)carbonyl]-1H-indol-5-yl]methanol], the midpoint of the response, the EC50, lay at 97.5 nM.

For the compound `CC1(C)C(C(=O)c2cn(CC3CCOCC3)c3cc(C#N)ccc23)C1(C)C` [1-(oxan-4-ylmethyl)-3-[(2,2,3,3-tetramethylcyclopropyl)carbonyl]-1H-indole-6-carbonitrile], the EC50 worked out at 53 nM. Against the preceding compound, the EC50 is about 1.8-fold lower.

The compound `CC1(C)C(C(=O)c2cn(CC3CCOCC3)c3ccc(O)cc23)C1(C)C` [1-(oxan-4-ylmethyl)-3-[(2,2,3,3-tetramethylcyclopropyl)carbonyl]-1H-indol-5-ol] returned a 50% effective concentration (EC50) of 11 nM.

With `CC1(C)C(C(=O)c2cn(CC3CCOCC3)c3c(F)c(F)c(F)c(F)c23)C1(C)C` [4,5,6,7-tetrafluoro-1-(oxan-4-ylmethyl)-3-[(2,2,3,3-tetramethylcyclopropyl)carbonyl]-1H-indole], the EC50 was determined as 40 nM.

In turn, `COCc1ccc2c(c1)c(C(=O)C1C(C)(C)C1(C)C)cn2CC1CCOCC1` [5-(methoxymethyl)-1-(oxan-4-ylmethyl)-3-[(2,2,3,3-tetramethylcyclopropyl)carbonyl]-1H-indole] yielded an EC50 of 74.5 nM.

As for `CC1(C)C(C(=O)c2cn(CC3CCOCC3)c3cc4c(cc23)OCO4)C1(C)C` [5-(oxan-4-ylmethyl)-7-[(2,2,3,3-tetramethylcyclopropyl)carbonyl]-2H,5H-[1,3]dioxolo[4,5-f]indole], a half-maximal effect (EC50) was put at 29.5 nM.

The compound `CC1(C)C(C(=O)c2cn(CC3CCOCC3)c3ccc(Br)cc23)C1(C)C` [5-bromo-1-(oxan-4-ylmethyl)-3-[(2,2,3,3-tetramethylcyclopropyl)carbonyl]-1H-indole] displayed an EC50 of 390 nM. This EC50 lies about 13-fold higher than the previous one.

On to `CC1(C)C(C(=O)c2cn(CC3CCOCC3)c3ccc(Cl)cc23)C1(C)C` [5-chloro-1-(oxan-4-ylmethyl)-3-[(2,2,3,3-tetramethylcyclopropyl)carbonyl]-1H-indole], for which it took 132 nM to reach a half-maximal effect (EC50). This EC50 lies about 3-fold lower than the previous one.

In the case of `CC1(C)C(C(=O)c2cn(CCN3CCOCC3)c3cccc(N)c23)C1(C)C` [1-[2-(morpholin-4-yl)ethyl]-3-[(2,2,3,3-tetramethylcyclopropyl)carbonyl]-1H-indol-4-amine], the concentration giving a half-maximal response (EC50) is 215 nM.

`CC1(C)C(C(=O)c2cn(CC3CCOCC3)c3cccc(O)c23)C1(C)C` [1-(oxan-4-ylmethyl)-3-[(2,2,3,3-tetramethylcyclopropyl)carbonyl]-1H-indol-4-ol] came in with a concentration giving a half-maximal response (EC50) of 73 nM.

In turn, `CC1(C)C(C(=O)c2cn(CC3CCOCC3)c3cc(O)ccc23)C1(C)C` [1-(oxan-4-ylmethyl)-3-[(2,2,3,3-tetramethylcyclopropyl)carbonyl]-1H-indol-6-ol] returned an EC50 of 18.5 nM.

For `Cc1c(C(=O)C2C(C)(C)C2(C)C)c2ccccc2n1CCN1CCOCC1` [4-(2-{2-methyl-3-[(2,2,3,3-tetramethylcyclopropyl)carbonyl]-1H-indol-1-yl}ethyl)morpholine], the EC50 amounted to 362 nM. Compared with the last compound, the EC50 is about 20-fold higher.

Compound `CC1(C)C(C(=O)c2cn(CC3CCOCC3)c3ccc(C#N)cc23)C1(C)C` [1-(oxan-4-ylmethyl)-3-[(2,2,3,3-tetramethylcyclopropyl)carbonyl]-1H-indole-5-carbonitrile] gave an EC50 of 263 nM.

`COc1ccc2c(c1)c(C(=O)C1C(C)(C)C1(C)C)cn2CC1CCOCC1` [5-methoxy-1-(oxan-4-ylmethyl)-3-[(2,2,3,3-tetramethylcyclopropyl)carbonyl]-1H-indole] had an EC50 of 101 nM. Compared with the last compound, the EC50 is about 2.6-fold lower.

As to `CC1(C)C(C(=O)c2cn(CC3CCOCC3)c3cc(O)c(O)cc23)C1(C)C` [1-(oxan-4-ylmethyl)-3-[(2,2,3,3-tetramethylcyclopropyl)carbonyl]-1H-indole-5,6-diol], the EC50 came out at 28 nM.

`CC1(C)C(C(=O)c2cn(CC3CCOCC3)c3ccc(F)cc23)C1(C)C` [5-fluoro-1-(oxan-4-ylmethyl)-3-[(2,2,3,3-tetramethylcyclopropyl)carbonyl]-1H-indole]: the EC50 was 36.5 nM.

In turn, `CC1(C)C(C(=O)c2cn(CC3CCOCC3)c3cc(OCc4ccccc4)ccc23)C1(C)C` [6-(benzyloxy)-1-(oxan-4-ylmethyl)-3-[(2,2,3,3-tetramethylcyclopropyl)carbonyl]-1H-indole] gave a 50% effective concentration (EC50) of 167 nM.

In the case of `CC1(C)C(C(=O)c2cn(CC3CCOCC3)c3cccc(OCc4ccccc4)c23)C1(C)C` [4-(benzyloxy)-1-(oxan-4-ylmethyl)-3-[(2,2,3,3-tetramethylcyclopropyl)carbonyl]-1H-indole], the half-maximal effective concentration (EC50) amounted to 502 nM.

On to `CC1(C)C(C(=O)c2cn(CC3CCOCC3)c3cc(Cl)ccc23)C1(C)C` [6-chloro-1-(oxan-4-ylmethyl)-3-[(2,2,3,3-tetramethylcyclopropyl)carbonyl]-1H-indole], for which the midpoint of the response, the EC50, lay at 21 nM.

`CC1(C)C(C(=O)c2cn(CC3CCOCC3)c3ccccc23)C1(C)C` [1-(oxan-4-ylmethyl)-3-[(2,2,3,3-tetramethylcyclopropyl)carbonyl]-1H-indole] displayed an EC50 of 9.5 nM.
